From patent publication US20230374038A1, “MODULATORS OF CYSTIC FIBROSIS TRANSMEMBRANE CONDUCTANCE REGULATOR” (VERTEX PHARMACEUTICALS INCORPORATED, priority 2020, published 2023)
Where two headings read alike, the source gives them in different places.

What was measured:
[1] = biological target: T1, CFTR (Homo sapiens, UniProt P13569, DEL508-508); assay: HBE Assay: Ussing chamber assay of CFTR-mediated short-circuit currents in F508del/MF-HBE cells with 1 μM Ivacaftor; format: cell-based; conditions: with 1 μM Ivacaftor, 18-24 hours, 20% human serum
T1 construct: endogenous in cells; host or cells: primary human bronchial epithelial cells, F508del/MF genotype
Procedure, shortened: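 F508del/MF-HBE cells at air-liquid interface >14 days were incubated 18-24 h at 37° C with corrector (concentration range or fixed 10 μM) plus 1 μM Ivacaftor in 20% human serum, compounds kept throughout. Ussing chamber, Vhold=0 mV, 37° C, apical amiloride 30 μM; ISC (μA/cm^2) from peak 20 μM forskolin response to steady state after CFTR inhibitor cocktail.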

[2] = biological target: T2, CFTR (Homo sapiens, UniProt P13569); assay: Membrane Potential Dye, Enteroid Assay A; format: cell-based; conditions: for EC50: read-out: Ent. A EC50
Method: Base medium (ADF+++) consisted of Advanced DMEM/Ham's F12, 2 mM Glutamax, 10 mM HEPES, 1 µg/mL penicillin/streptomycin.
Intestinal enteroid maintenance medium (IEMM) consisted of ADF+++, 1× B27 supplement, 1× N2 supplement, 1.25 mM N-acetyl cysteine, 10 mM Nicotinamide, 50 ng/mL hEGF, 10 nM Gastrin, 1 pg/mL hR-spondin-1, 100 ng/mL hNoggin, TGF-b type 1 inhibitor A-83-01, 100 μg/mL Primocin, […] P38 MAPK inhibitor SB202190.
Bath 1 Buffer consisted of 1 mM MgCl2, 160 mM NaCl, 4.5 mM KCl, 10 mM HEPES, 10 mM Glucose, 2 mM CaCl2).
Chloride Free Buffer consisted of 1 mM Magnesium Gluconate, 2 mM Calcium Gluconate, 4.5 mM Potassium Gluconate, 160 mM Sodium Gluconate, 10 mM HEPES, 10 mM Glucose.
Bath1 Dye Solution consisted of Bath 1 Buffer, 0.04% Pluronic F127, […] Methyl Oxonol, 30 μM CaCCinh-A01, 30 μM Chicago Sky Blue.
Chloride Free Dye Solution consisted of Chloride Free Buffer, 0.04% Pluronic F127, 20 μM Methyl Oxonol, 30 μM CaCCinh-A01, 30 μM Chicago Sky Blue.
Chloride Free Dye Stimulation Solution consisted of Chloride Free Dye Solution, 10 μM forskolin, 100 μM IBMX, and 300 nM Compound III.
Human intestinal epithelial enteroid cells were obtained from the Hubrecht Institute for Developmental Biology and Stem Cell Research, Utrecht, The Netherlands and expanded in T-Flasks as previously described (Dekkers J F, Wiegerinck C L, de Jonge H R, Bronsveld I, Janssens H M, de Winter-de Groot K M, Brandsma A M, de Jong N W M, Bijvelds M J C, Scholte B J, Nieuwenhuis E E S, van den Brink S, Clevers H, van der Ent C K, Middendorp S and M Beekman J M. A functional CFTR assay using primary cystic fibrosis intestinal organoids. Nat Med. 2013 July; 19(7):939-45.).
Cells were recovered in cell recovery solution, collected by centrifugation at 650 rpm for 5 min at 4° C., resuspended in TryPLE and incubated for 5 min at 37° C. Cells were then collected by centrifugation at 650 rpm for 5 min at 4° C. and resuspended in IEMM containing 10 μM ROCK inhibitor (RI). The cell suspension was passed through a 40 μm cell strainer and resuspended at 1×10^6 cells/mL in IEMM containing 10 μM RI. Cells were seeded at 5000 cells/well into multi-well plates and incubated for overnight at 37° C., 95% humidity and 5% CO2 prior to assay.
Enteroid cells were incubated with test compound in IEMM for 18-24 hours at 37° C., 95% humidity and 5% CO2. […] Briefly, cells were washed 5 times in Bath 1 Buffer. Bath 1 Dye Solution was added, and the cells were incubated for 25 min at room temperature. Following dye incubation, cells were washed 3 times in Chloride Free Dye Solution. Chloride transport was initiated by addition of Chloride Free Dye Stimulation Solution and the fluorescence signal was read for 15 min. […] Chloride transport was then expressed as a percentage of the chloride transport following treatment with 3 μM (S)—N-((6-aminopyridin-2-yl)sulfonyl)-6-(3-fluoro-5-isobutoxyphenyl)-2-(2,2,4-trimethylpyrrolidin-1-yl)nicotinamide, 3 μM (R)-1-(2,2-difluorobenzo[d][1,3]dioxol-5-yl)-N-(1-(2,3-dihydroxypropyl)-6-fluoro-2-(1-hydroxy-2-methylpropan-2-yl)-1H-indol-5-yl)cyclopropanecarboxamide and 300 nM acute N-[2,4-bis(1,1-dimethylethyl)-5-hydroxyphenyl]-1,4-dihydro-4-oxoquinoline-3-carboxamide triple combination control (% Activity).

[3] = biological target: T2, CFTR; assay: Membrane Potential Dye, Enteroid Assay B; format: cell-based; conditions: for EC50: read-out: Ent. B EC50
Procedure, shortened: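 Human intestinal enteroids seeded at 5000 cells/well, treated with compound 18-24 h at 37 °C, then loaded 25 min with methyl oxonol membrane-potential dye plus CaCC blockers. Chloride transport started in chloride-free buffer with 10 μM forskolin, 100 μM IBMX and 300 nM Compound III, read 15 min; expressed as % of triple-combination control.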

T2 sequence (P13569 with tags, fused parts or gaps DEL508-508): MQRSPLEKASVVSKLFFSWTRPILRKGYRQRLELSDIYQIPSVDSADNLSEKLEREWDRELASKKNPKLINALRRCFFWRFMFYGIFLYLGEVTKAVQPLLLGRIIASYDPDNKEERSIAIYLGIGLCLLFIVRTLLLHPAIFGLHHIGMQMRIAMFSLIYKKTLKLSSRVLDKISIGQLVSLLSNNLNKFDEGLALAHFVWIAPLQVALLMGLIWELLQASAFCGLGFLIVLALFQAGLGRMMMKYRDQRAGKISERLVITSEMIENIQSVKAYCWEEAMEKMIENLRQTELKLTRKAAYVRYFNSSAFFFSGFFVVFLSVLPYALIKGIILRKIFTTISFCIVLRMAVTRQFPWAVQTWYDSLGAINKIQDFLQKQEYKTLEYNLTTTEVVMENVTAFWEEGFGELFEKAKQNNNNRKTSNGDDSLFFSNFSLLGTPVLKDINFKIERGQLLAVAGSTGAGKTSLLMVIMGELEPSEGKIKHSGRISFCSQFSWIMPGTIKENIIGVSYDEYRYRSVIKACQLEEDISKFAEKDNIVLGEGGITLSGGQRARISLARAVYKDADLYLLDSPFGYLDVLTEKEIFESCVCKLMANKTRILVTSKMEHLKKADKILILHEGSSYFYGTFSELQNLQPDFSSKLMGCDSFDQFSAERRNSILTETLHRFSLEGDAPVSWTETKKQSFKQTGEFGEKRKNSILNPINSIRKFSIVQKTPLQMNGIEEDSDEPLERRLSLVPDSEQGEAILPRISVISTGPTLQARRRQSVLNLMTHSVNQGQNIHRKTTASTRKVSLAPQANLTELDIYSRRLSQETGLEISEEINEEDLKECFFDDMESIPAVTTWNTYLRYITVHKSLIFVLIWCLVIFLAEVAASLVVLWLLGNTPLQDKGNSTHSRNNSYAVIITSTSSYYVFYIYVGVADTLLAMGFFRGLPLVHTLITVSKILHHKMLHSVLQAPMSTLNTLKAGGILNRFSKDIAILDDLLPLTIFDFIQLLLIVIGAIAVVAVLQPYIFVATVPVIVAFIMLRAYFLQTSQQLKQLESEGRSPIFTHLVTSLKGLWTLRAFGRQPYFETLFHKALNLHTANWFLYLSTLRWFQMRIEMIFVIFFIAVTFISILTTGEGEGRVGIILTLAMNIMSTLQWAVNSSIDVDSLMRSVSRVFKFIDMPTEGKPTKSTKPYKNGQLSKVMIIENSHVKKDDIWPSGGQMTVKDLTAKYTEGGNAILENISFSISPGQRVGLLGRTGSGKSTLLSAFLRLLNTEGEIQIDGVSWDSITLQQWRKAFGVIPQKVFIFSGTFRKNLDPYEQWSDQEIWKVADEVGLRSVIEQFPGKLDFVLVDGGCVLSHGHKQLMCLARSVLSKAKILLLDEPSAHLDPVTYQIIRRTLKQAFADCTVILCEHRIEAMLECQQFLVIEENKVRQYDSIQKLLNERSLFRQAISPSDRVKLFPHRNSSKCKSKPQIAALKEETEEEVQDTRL
T1 sequence (P13569 with tags, fused parts or gaps DEL508-508): as above

Row | SMILES | Ent. A Max Activity [2] | EC50 [2] [nM] | Ent. B Max Activity [3] | EC50 [3] [nM] | further results
1 | Cc1cccc(C)c1-c1nc2nc(c1C)OC[C@@H](CC(C)(C)C)N(Cc1ccc(N3CCOCC3)cn1)C(=O)c1cccc(c1)S(=O)(=O)N2 [Compound 49, (11R)-6-(2,6-Dimethylphenyl)-11-(2,2-dimethylpropyl)-7-methyl-12-{[5-(morpholin-4-yl)pyridin-2-yl]methyl}-9-oxa-2λ^6-thia-3,5,12,19-tetraazatricyclo[12.3.1.14,8]nonadeca-1(17),4(19),5,7,14(18),15-hexaene-2,2,13-trione] |  |  |  |  | EC50 [1]: < 1000 nM; HBE Max Activity [1]: +++ (+++ is >600%); ring closure, yield after HPLC (from Cc1cccc(C)c1-c1nc(NS(=O)(=O)c2cccc(C(=O)O)c2)nc(OC[C@@H](CC(C)(C)C)NCc2ccc(N3CCOCC3)cn2)c1C, amide bond, 13-membered ring, CDMT/NMM, DMF, 21.0 mM, 15.0 h, 2 steps): 5%
2 | Cc1ccccc1-c1nc2nc(c1C(F)(F)F)OCC1CN(CCN1CCC1(C(F)(F)F)CC1)C(=O)c1cccc(c1)S(=O)(=O)N2 (centres unmarked) [Compound 32, 12-(2-Methylphenyl)-13-(trifluoromethyl)-18-{2-[1-(trifluoromethyl)cyclopropyl]ethyl}-15-oxa-8λ^6-thia-1,9,11,18,22-pentaazatetracyclo[15.3.1.13,7.110,14]tricosa-3(23),4,6,10(22),11,13-hexaene-2,8,8-trione] | ++ (++ is 30-60%) | 1000 to 3000 |  |  | ring closure, yield after HPLC (from Cc1ccccc1-c1nc(NS(=O)(=O)c2cccc(C(=O)O)c2)nc(OCC2CNCCN2CCC2(C(F)(F)F)CC2)c1C(F)(F)F, amide bond, 14-membered ring, HATU/DIEA, DMF, 25.0 °C, 1.0 h, 3 steps): 16%
3 | Cc1ccccc1-c1nc2nc(c1C(C)(C)C)OCC1CN(CCN1CCC1(C(F)(F)F)CC1)C(=O)c1cccc(c1)S(=O)(=O)N2 (centres unmarked) [Compound 33, 13-tert-Butyl-12-(2-methylphenyl)-18-{2-[1-(trifluoromethyl)cyclopropyl]ethyl}-15-oxa-8λ^6-thia-1,9,11,18,22-pentaazatetracyclo[15.3.1.13,7.110,14]tricosa-3(23),4,6,10(22),11,13-hexaene-2,8,8-trione] | +++ (+++ is >60%) | 1000 to 3000 |  |  | ring closure, yield after HPLC (from Cc1ccccc1-c1nc(NS(=O)(=O)c2cccc(C(=O)O)c2)nc(OCC2CNCCN2CCC2(C(F)(F)F)CC2)c1C(C)(C)C, amide bond, 14-membered ring, HATU/DIEA, DMF, 25.0 °C, 1.0 h, 3 steps): 8%
4 | Cc1c2nc(nc1-c1ccccc1C(C)C)NS(=O)(=O)c1cccc(c1)C(=O)N(Cc1ncc(N3CCOCC3)cn1)[C@H](CC(C)(C)C)CO2 [Compound 173, (11R)-11-(2,2-Dimethylpropyl)-7-methyl-12-{[5-(morpholin-4-yl)pyrimidin-2-yl]methyl}-6-[2-(propan-2-yl)phenyl]-9-oxa-2λ^6-thia-3,5,12,19-tetraazatricyclo[12.3.1.14,8]nonadeca-1(17),4(19),5,7,14(18),15-hexaene-2,2,13-trione] |  |  |  |  | EC50 [1]: < 1000 nM; HBE Max Activity [1]: +++ (+++ is >600%); ring closure, yield after HPLC (from Cc1c(OC[C@@H](CC(C)(C)C)NCc2ncc(N3CCOCC3)cn2)nc(NS(=O)(=O)c2cccc(C(=O)O)c2)nc1-c1ccccc1C(C)C, amide bond, 13-membered ring, CDMT/NMM, DMF, 57.0 mM, 19.0 h, 2 steps): 18%
5 | Cc1cccc(C)c1-c1nc2nc(c1OC(C)C)OC[C@@H](CC(C)C)NC(=O)c1cccc(c1)S(=O)(=O)N2 [Compound 165, (11R)-6-(2,6-Dimethylphenyl)-11-isobutyl-7-isopropoxy-2,2-dioxo-9-oxa-2λ^6-thia-3,5,12,19-tetrazatricyclo[12.3.1.14,8]nonadeca-1(18),4(19),5,7,14,16-hexaen-13-one] | +++ (+++ is >60%) | < 1000 | +++ (+++ is >60%) | < 1000 | ring closure, yield after HPLC (from Cc1cccc(C)c1-c1nc(NS(=O)(=O)c2cccc(C(=O)O)c2)nc(OC[C@H](N)CC(C)C)c1OC(C)C, amide bond, 13-membered ring, HATU/Et3N, DMF, 12.0 mM, 0.5 h, 2 steps): 8%
6 | Cc1ccccc1-c1nc2nc(c1C(F)(F)F)OCC1CN(C)CCN1C(=O)c1cccc(c1)S(=O)(=O)N2 (centres unmarked) [Compound 31, 6-Methyl-13-(2-methylphenyl)-12-(trifluoromethyl)-10-oxa-17λ^6-thia-3,6,14,16,23-pentaazatetracyclo[16.3.1.111,15.03,8]tricosa-1(22),11,13,15(23),18,20-hexaene-2,17,17-trione] | ++ (++ is 30-60%) | 3000 to 30000 |  |  | ring closure, yield after HPLC (from Cc1ccccc1-c1nc(NS(=O)(=O)c2cccc(C(=O)N3CCN(C)CC3CO)c2)nc(Cl)c1C(F)(F)F, snar bond, 13-membered ring, NaH, NMP, 70.0 °C, 4.0 h, 2 steps): 6%
7 | Cc1cccc(C)c1-c1nc2nc(c1F)O[C@H](c1ccc(C(C)(C)C)cc1)[C@@H](C)NC(=O)c1cccc(c1)S(=O)(=O)N2 [Compound 167, (10R,11R)-10-(4-tert-Butylphenyl)-6-(2,6-dimethylphenyl)-7-fluoro-11-methyl-2,2-dioxo-9-oxa-2λ^6-thia-3,5,12,19-tetrazatricyclo[12.3.1.14,8]nonadeca-1(18),4(19),5,7,14,16-hexaen-13-one] |  |  | +++ (+++ is >60%) | < 1000 | ring closure, yield after HPLC (amide bond, 13-membered ring, NaOtBu then HATU, THF/DMF, 30.0 mM, 2 steps): 30%
8 | CCc1c2nc(nc1-c1c(C)cccc1C)NS(=O)(=O)c1cccc(c1)C(=O)N(C1CC3(CC3)C1)[C@H](CC(C)C)CO2 [Compound 160, (11R)-6-(2,6-Dimethylphenyl)-7-ethyl-11-isobutyl-2,2-dioxo-12-spiro[2.3]hexan-5-yl-9-oxa-2λ^6-thia-3,5,12,19-tetrazatricyclo[12.3.1.14,8]nonadeca-1(17),4(19),5,7,14(18),15-hexaen-13-one] |  |  | +++ (+++ is >60%) | < 1000 | ring closure, yield after HPLC (from CCc1c(OC[C@@H](CC(C)C)NC2CC3(CC3)C2)nc(NS(=O)(=O)c2cccc(C(=O)O)c2)nc1-c1c(C)cccc1C, amide bond, 13-membered ring, HATU/TEA, DMF, 31.1 mM, 3.0 h): 60%
